Structures are written as SMILES. Numbered stars: 1 amine (or outer) side, 2 acyl side, 3 side chain; on linkers, the order of the positions; unused ones are H or OH. Bridge positions count the residues as written; N and C are the ends. Square brackets hold non-standard residues; d marks the D form. Peptide text beside a SMILES is read from it. * marks the point of attachment. hPhe(3-Cl-4-CF3) = N[C@@H](CCc1ccc(C(F)(F)F)c(Cl)c1)C(=O)O; hPhe(3-F,4-CF3) = N[C@@H](CCc1ccc(C(F)(F)F)c(F)c1)C(=O)O; NMePhe(4-CF3) = CN[C@@H](Cc1ccc(C(F)(F)F)cc1)C(=O)O; Thiomorpholino(1,1-dioxo) = O=S1(=O)CCN(*)CC1; NMePhe(4-Cl) = CN[C@@H](Cc1ccc(Cl)cc1)C(=O)O; NMeNle(6-CHF2) = CN[C@@H](CCCCC(F)F)C(=O)O; NMedβ3hAla = C[C@H](CC(=O)[*:2])N(C)[*:1]; NMeGly(cPent) = CN[C@H](C(=O)O)C1CCCC1; Phe(3-I) = N[C@@H](Cc1cccc(I)c1)C(=O)O; NMeCha = CN[C@@H](CC1CCCCC1)C(=O)O; NMeI = CC[C@H](C)[C@H](NC)C(=O)O; NMeD = CN[C@@H](CC(=O)O)C(=O)O; NMeL = CN[C@@H](CC(C)C)C(=O)O; Cba = N[C@@H](CC1CCC1)C(=O)O; Chg = N[C@H](C(=O)O)C1CCCCC1; NMeV = CN[C@H](C(=O)O)C(C)C; d(β3hA) = C[C@@H](N)CC(=O)O; Pip = O=C(O)[C@@H]1CCCCN1; NMeA = CN[C@@H](C)C(=O)O; NMeAib = CNC(C)(C)C(=O)O; Nle = CCCC[C@H](N)C(=O)O; Piperidide = C1CCN(*)CC1; Pyrrolidide = C1CCN(*)C1; dNMeA = CN[C@H](C)C(=O)O; Ac5c = NC1(C(=O)O)CCCC1; Aze = O=C(O)[C@@H]1CCN1; Thp = NC1(C(=O)O)CCOCC1; Aib = CC(C)(N)C(=O)O; Sar = CNCC(=O)O

The experiment has as its system Human pancreatic cancer cell line AsPC-1 (G12D mutation Kras). The experiment is described as follows: AsPC-1 cell growth inhibition (AsPC-1 CGI). The experiment is classed as cell-based. Conditions: read-out: AsPC-1 cell growth inhibition, 50% growth inhibitory concentration (IC50 value); 96 hours, CellTiter-Glo, values classified in ranges.
Description: Test compounds were serially dilated with dimethyl sulfoxide, and 200 nL was then dispensed to a U-bottom 96-well plate using Labcyte Echo. […] The cell suspension was dispensed to a. plate containing a test compound at 100 μL per well and incubated at 37° C. in a 5% carbon dioxide gas incubator. 96 hours later, 80 μL of CellTiter-Glo (Promega) was added to each well and fluorescence was measured.
Take `CC[C@H](C)[C@@H]1NC(=O)[C@H](C)N(C)C(=O)C[C@@H](C)NC(=O)[C@H](C2CCCC2)N(C)C(=O)C2(CCCC2)NC(=O)[C@@H]2CCCN2C(=O)[C@H](CCc2ccc(C(F)(F)F)c(Cl)c2)NC(=O)[C@@H](C)N(C)C(=O)[C@H](Cc2ccc(C(F)(F)F)cc2)N(C)C(=O)CN(C)C(=O)CN(C)C1=O` [Compound 1520] (cyclo([Ac5c][NMeGly(cPent)][d(β3hA)][NMeA]I[Sar][Sar][NMePhe(4-CF3)][dNMeA][hPhe(3-Cl-4-CF3)]P)): the IC50 was greater than 500 nM. The same measure for `CC[C@H](C)[C@@H]1NC(=O)[C@H](CC(C)C)N(C)C(=O)C[C@@H](C(=O)N2CCCCC2)NC(=O)[C@H](C(C)C)N(C)C(=O)C2(CCCC2)NC(=O)[C@@H]2CCCN2C(=O)[C@H](CCc2ccc(C(F)(F)F)c(Cl)c2)NC(=O)CN(C)C(=O)[C@H](CC2CCCCC2)N(C)C(=O)CN(C)C(=O)CN(C)C1=O` [Compound 417] ([NMeL]I[Sar][Sar][NMeCha][Sar][hPhe(3-Cl-4-CF3)]P[Ac5c][NMeV]D-Piperidide; lactam N-11): greater than 500 nM. Take `CC[C@H](C)[C@@H]1NC(=O)[C@H](CC(C)C)N(C)C(=O)C[C@@H](C(=O)N2CCCCC2)N(C)C(=O)[C@H](C2CCCC2)N(C)C(=O)C2(CCCC2)NC(=O)[C@@H]2CCCN2C(=O)[C@H](CCc2ccc(C(F)(F)F)c(F)c2)NC(=O)CN(C)C(=O)[C@H](C2CCCC2)N(C)C(=O)[C@@H]2CCN2C(=O)[C@H](C)N(C)C1=O` [Compound 1099] ([NMeL]I[NMeA][Aze][NMeGly(cPent)][Sar][hPhe(3-F,4-CF3)]P[Ac5c][NMeGly(cPent)][NMeD]-Piperidide; lactam N-11): the IC50 was no more than 20 nM.

For `CC[C@H](C)[C@@H]1NC(=O)[C@H](C2CCCC2)N(C)C(=O)C[C@@H](C)NC(=O)[C@H](C(C)C)N(C)C(=O)C2(CCCC2)NC(=O)[C@@H]2CCCN2C(=O)[C@H](CCc2ccc(C(F)(F)F)c(Cl)c2)NC(=O)CN(C)C(=O)[C@H](CC2CCCCC2)N(C)C(=O)[C@@H]2CCN2C(=O)[C@H](C)N(C)C1=O` [Compound 570] (cyclo([Ac5c][NMeV][d(β3hA)][NMeGly(cPent)]I[NMeA][Aze][NMeCha][Sar][hPhe(3-Cl-4-CF3)]P)), the IC50 is greater than 500 nM. The same measure for `CCCC[C@@H]1NC(=O)[C@H](Cc2cccc(I)c2)NC(=O)CN(C)C(=O)[C@H](Cc2ccc(Cl)cc2)N(C)C(=O)CN(C)C(=O)CN(C)C(=O)[C@H]([C@@H](C)CC)NC(=O)[C@H](CC(C)C)N(C)C(=O)C[C@@H](C(=O)N2CCCCC2)N(C)C(=O)[C@H](CC2CCC2)NC(=O)C(C)(C)N(C)C1=O` [Compound 1422] ([NMeL]I[Sar][Sar][NMePhe(4-Cl)][Sar][Phe(3-I)][Nle][NMeAib][Cba][NMeD]-Piperidide; lactam N-11): greater than 500 nM; for `CC[C@H](C)[C@@H]1NC(=O)[C@H](CC(C)C)N(C)C(=O)C[C@@H](C(=O)N2CCS(=O)(=O)CC2)NC(=O)[C@H]([C@@H](C)CC)N(C)C(=O)C2(CCCC2)NC(=O)[C@@H]2CCCN2C(=O)[C@H](CCc2ccc(C(F)(F)F)c(Cl)c2)NC(=O)CN(C)C(=O)[C@H](CC2CCCCC2)N(C)C(=O)CN(C)C(=O)CN(C)C1=O` [Compound 1279] ([NMeL]I[Sar][Sar][NMeCha][Sar][hPhe(3-Cl-4-CF3)]P[Ac5c][NMeI]D-{Thiomorpholino(1,1-dioxo)}; lactam N-11): greater than 500 nM; for `CC[C@H](C)[C@@H]1NC(=O)[C@H](CC(C)C)N(C)C(=O)C[C@@H](C)N(C)C(=O)[C@H](CC(C)C)N(C)C(=O)C2(CCOCC2)NC(=O)[C@@H]2CCCN2C(=O)[C@H](CCc2ccc(C(F)(F)F)c(Cl)c2)NC(=O)CN(C)C(=O)[C@H](CC2CCCCC2)N(C)C(=O)CN(C)C(=O)CN(C)C1=O` [Compound 742] (cyclo(I[Sar][Sar][NMeCha][Sar][hPhe(3-Cl-4-CF3)]P[Thp][NMeL][NMedβ3hAla][NMeL])): greater than 500 nM. For the compound `CC(C)C[C@H]1C(=O)N[C@@H](C2CCCCC2)C(=O)N(C)CC(=O)N(C)CC(=O)N(C)[C@@H](CCCCC(F)F)C(=O)N(C)CC(=O)N[C@@H](CCc2ccc(C(F)(F)F)c(F)c2)C(=O)N(C)[C@@H](CC(C)C)C(=O)NC(C)(C)C(=O)N(C)[C@@H](CC(C)C)C(=O)N[C@H](C(=O)N2CCCC2)CC(=O)N1C` [Compound 1453] ([NMeL][Chg][Sar][Sar][NMeNle(6-CHF2)][Sar][hPhe(3-F,4-CF3)][NMeL][Aib][NMeL]D-Pyrrolidide; lactam N-11), the IC50 was greater than 500 nM. In the case of `CC[C@H](C)[C@@H]1NC(=O)[C@@H]2CCCCN2C(=O)C[C@@H](C(=O)N2CCCCC2)N(C)C(=O)[C@H](C(C)C)N(C)C(=O)C2(CCCC2)NC(=O)[C@@H]2CCCN2C(=O)[C@H](CCc2ccc(C(F)(F)F)c(F)c2)NC(=O)CN(C)C(=O)[C@H](CC2CCCCC2)N(C)C(=O)CN(C)C(=O)CN(C)C1=O` [Compound 670] ([Pip]I[Sar][Sar][NMeCha][Sar][hPhe(3-F,4-CF3)]P[Ac5c][NMeV][NMeD]-Piperidide; lactam N-11), the IC50 is greater than 500 nM.
